Reference: patent publication US10750729B2, “Pig for atrioventricular block model, monkey for atrioventricular block model, guinea pig for atrioventricular block model, and use thereof” (Toho University, priority 2012, dated 2020)

How the values were obtained:
Guinea pigs (Hartley) = assay: Test Example 3-2: electrocardiogram and aortic pressure of halothane-anesthetized guinea pigs (BAF312); type: in vivo; details: guinea pig
Method: Guinea pigs (Hartley, body weight: 420 g to 650 g, male, obtained from Japan SLC, Inc.) were each anesthetized by intraperitoneally administering thereto sodium thiopental (product of Mitsubishi Tanabe Pharma Corporation) at 50 mg/kg. Next, a tracheal cannula was inserted into each of the guinea pigs. While their body temperature was being maintained at 37° C. with a warming pad, the guinea pigs were allowed to inhale 100% by volume oxygen and 1% by volume vaporized halothane (product of Takeda Pharmaceutical Company Limited.) using an artificial respirator for experimental animals (SN-480-7; product of shimano Co., Ltd.). Here, the artificial respirator for experimental animals was set to a tidal volume of 10 mL/kg and a respiration rate of 60 strokes/min. Next, a cannula for drug administration was inserted to their left femoral vein. In addition, a heparinized catheter for monitoring the blood pressure was inserted to the aorta through the left femoral […]. Then, ECG standard limb II leads was continuously recorded.
Each of the guinea pigs (n=12) of Example 3 was recorded for an electrocardiogram before administration of a drug or a solvent.
BAF312 (product of Meiji Seika Pharma Co., Ltd.) was dissolved in dimethyl sulfoxide (hereinafter may be referred to as “DMSO”; product of Sigma-Aldrich Inc.) so as to have a concentration of 0.003 mg/mL.
After the evaluation of base control, the cannula for drug administration was inserted, and the above-prepared BAF312 solution was intravenously administered to each of the guinea pigs (n=4) of Example 3 for 10 min at a dose of 0.001 mg/kg. These guinea pigs were evaluated for parameters by the following evaluation methods at 5 min, 10 min, 15 min, 20 min, 30 min, 45 min or 60 min after the administration of the BAF312 solution.
BAF312 (product of Meiji Seika Pharma Co., Ltd.) was dissolved in DMSO (product of Sigma-Aldrich Inc.) so as to have a concentration of 0.03 mg/mL.
After the evaluation of base control, the cannula for drug administration was inserted, and the above-prepared BAF312 solution was intravenously administered to each of the guinea pigs (n=4) of Example 3 for 10 min at a dose of 0.01 mg/kg. These guinea pigs were evaluated for parameters by the following evaluation methods at 5 min, 10 min, 15 min, 20 min, 30 min, 45 min or 60 min after the administration of the BAF312 solution.
The aortic pressure and the electrocardiogram were monitored using a polygraph system (RM-6000, product of NIHON KOHDEN Co. Ltd.) and analyzed with a full-automated analysis system in real time (WinVAS ver. 3, 1.1R03; product of Physio-Tech Co., Ltd).
Parameters of the electrocardiogram were measured three times, and the obtained values were averaged. Atrial rate was calculated from PP interval of the electrocardiogram. Ventricular rate was calculated from RR interval of the electrocardiogram.
The measurements in FIGS. 6A to 6E are expressed as mean±SE (n=4). The difference between the parameters was evaluated with one-way repeated measures analysis of variance (ANOVA). It was considered that p<0.05 is statistically significant. In FIG. 6A to 6C and FIG. 6E, “white circle,” “white square” and “white triangle” each mean absence of a significant difference relative to the value of the evaluation of base control (C), and “black circle” means presence of a significant difference relative to the value of the evaluation of base control (C).
Also, in FIG. 6D, “white circle” means absence of development of atrioventricular block or presence of development of first-degree atrioventricular block, “white triangle” means presence of development of advanced atrioventricular block, “x-mark” means presence of development of third-degree atrioventricular block (complete atrioventricular block), and #1 to 4 refer to each individual.

rat = details: cited from earlier work
[1] = high-dose 0.01 mg/kg/10 min i.v.
[2] = low-dose 0.001 mg/kg/10 min i.v.
[3] = low-dose 0.001 mg/kg/10 min i.v., from 5 min to 60 min

| Structure (SMILES) | change in QRS width (Guinea pigs (Hartley); [1]) | change in QT interval (Guinea pigs (Hartley); [1]) | change in atrial rate (Guinea pigs (Hartley); [1]) | change in blood pressure (MBP) (Guinea pigs (Hartley); [1]) | correspondence of P wave and R wave in the electrocardiogram (Guinea pigs (Hartley); high-dose 0.01 mg/kg/10 min i.v., 45 min after start) | change in PR interval (Guinea pigs (Hartley); high-dose 0.01 mg/kg/10 min i.v., before development of atrioventricular block) | change in ventricular rate (Guinea pigs (Hartley); high-dose 0.01 mg/kg/10 min i.v., from 10 min to 15 min) | individuals that developed complete atrioventricular block (Guinea pigs (Hartley); high-dose 0.01 mg/kg/10 min i.v., n=4) | change in PR interval (Guinea pigs (Hartley); [2]) | change in QRS width (Guinea pigs (Hartley); [2]) | change in QT interval (Guinea pigs (Hartley); [2]) | change in blood pressure (MBP) (Guinea pigs (Hartley); [2]) | change in atrial rate (Guinea pigs (Hartley); [3]) | change in ventricular rate (Guinea pigs (Hartley); [3]) | prolongation of PR interval (rat) |
| --- | --- | --- | --- | --- | --- | --- | --- | --- | --- | --- | --- | --- | --- | --- | --- |
| CCc1cc(/C(C)=N/OCc2ccc(C3CCCCC3)c(C(F)(F)F)c2)ccc1CN1CC(C(=O)O)C1 [BAF312, siponimod] | no significant change | no significant change | no significant change | increase | the atrium and the ventricle are contracted independently of each other at their own individual rhythms | prolonged | decrease | all of the four individuals | prolongation of PR interval was observed | no significant change | no significant change | increase | decrease | decrease |  |
| CCCCCCCCCCCCC/C=C/[C@@H](O)[C@@H](N)COP(=O)(O)O [sphingosine-1-phosphate] |  |  |  |  |  |  |  |  |  |  |  |  |  |  | not observed |
